Measurements taken from the NIST ThermoML archive (doi:10.1021/je300482b).

Assay: xn = mol fraction of the nth substance listed
Conditions: Liquid, Vibrating tube method

CCCCCCCCCCCCCCCC [hexadecane] + CCCCCCCCCC
mass density [kg/m3]
Conditions | 1000 kPa | 2000 kPa | 3000 kPa | 4000 kPa | 5000 kPa | 6000 kPa | 7000 kPa | 8000 kPa | 9000 kPa | 10000 kPa
295 K, x2 = 0.25 | 760.6 | 761.3 | 762 | 762.6 | 763.3 | 764 | 764.6 | 765.3 | 765.9 | 766.6
295 K, x2 = 0.75 | 739.6 | 740.4 | 741.1 | 741.8 | 742.5 | 743.3 | 744 | 744.7 | 745.4 | 746.2
295.3 K, x2 = 0.5 | 751 | 751.7 | 752.4 | 753.1 | 753.8 | 754.5 | 755.1 | 755.8 | 756.5 | 757.2
